For 16 compounds, GI50 results are on record in patent US20260062422A1 (Halda Therapeutics OpCo, Inc., priority 2022, published 2026).

The subject of assay [1] is T-Rex 293 cell line SC3 cells having increased expression of androgen receptor protein due to exposure to doxycycline. Kind of assay: Cellular growth inhibition, T-Rex 293 SC3 cells with doxycycline (androgen receptor induced), CellTiter-Glo. Format: cell-based. Conditions: 72 h, T-Rex 293 SC3 cells with 10 ng/mL doxycycline (increased androgen receptor expression). The method, boiled down:
(§1)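 Doxycycline-inducible androgen receptor T-Rex 293 clone SC3, seeded at 2500/well in phenol red-free DMEM with 10% charcoal-dextran FBS, without doxycycline or with 10 ng/mL to induce receptor. Compound added after 24 h (0.5% DMSO), 72 h at 37 °C; CellTiter-Glo 2.0 luminescence, GI50 by four-parameter fit.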
On the technique in general: Cellular ATP, detected with luciferase, serves as a proxy for viable cell number.

Assay [2] deals with T-Rex 293 cell line SC3 cells lacking increased expression of androgen receptor protein. Kind of assay: Cellular growth inhibition, T-Rex 293 SC3 cells without doxycycline, CellTiter-Glo. Format: cell-based. Conditions: 72 h, T-Rex 293 SC3 cells not exposed to doxycycline, CellTiter-Glo 2.0. An outline of the steps: as §1
The subject of assay [3] is VCaP cells. Put plainly: Cellular growth inhibition assay for VCaP cells, CellTiter-Glo. Format: cell-based, human. Conditions: Homo sapiens, VCaP, 72 h, 72 hours treatment, CellTiter-Glo 2.0. An outline of the steps:
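GI50 values come from four-parameter curve fits of luminescence data normalized to a zero baseline. Compound, in medium with 0.5% DMSO, was added one day after plating and left for 72 h before CellTiter-Glo 2.0 addition.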

Each structure is given as a SMILES string.

Take `CCNC(=O)C[C@@H]1N=C(c2ccc(C#CCN3CCN(c4ncc(C(=O)N[C@H]5C(C)(C)[C@H](Oc6ccc(C#N)c(Cl)c6)C5(C)C)cn4)CC3)cc2)c2c(sc(C)c2C)-n2c(C)nnc21` [Compound I-54, N-[3-(3-chloro-4-cyano-phenoxy)-2,2,4,4-tetramethyl-cyclobutyl]-2-[4-[3-[4-[(9S)-9-[2-(ethylamino)-2-oxo-ethyl]-4,5,13-trimethyl-3-thia-1,8,11,12-tetrazatricyclo[8.3.0.02,6]trideca-2(6),4,7,10,12-pentaen-7-yl]phenyl]prop-2-ynyl]piperazin-1-yl]pyrimidine-5-carboxamide]: the figures for the GI50 in assay [1], in assay [2] and in assay [3] were < 500 nM, 500 to 1500 nM and < 500 nM, respectively.

On to `Cc1sc2c(c1C)C(c1ccc(OC3CN(CC4CCN(c5ncc(C(=O)N[C@H]6C(C)(C)[C@H](Oc7ccc(C#N)c(Cl)c7)C6(C)C)cn5)CC4)C3)cc1)=N[C@H](Cc1ncco1)c1nnc(C)n1-2` [Compound I-169], for which the results for the GI50 in assay [1], in assay [2] and in assay [3] were < 500 nM, > 3000 nM and < 500 nM, respectively.

For `Cc1sc2c(c1C)C(c1ccc(Cl)cc1)=N[C@@H](CC(=O)NCCCN1CCN(CCCN(C)c3ncc(C(=O)N[C@H]4C(C)(C)[C@H](Oc5ccc(C#N)c(Cl)c5)C4(C)C)cn3)CC1)c1nnc(C)n1-2` [Compound I-5, N-((1r,3r)-3-(3-chloro-4-cyanophenoxy)-2,2,4,4-tetramethylcyclobutyl)-2-((3-(4-(3-(2-((S)-4-(4-chlorophenyl)-2,3,9-trimethyl-6H-thieno[3,2-f][1,2,4]triazolo[4,3-a][1,4]diazepin-6-yl)acetamido)propyl)piperazin-1-yl)propyl)(methyl)amino)pyrimidine-5-carboxamide], the GI50 is < 500 nM in assay [1], > 3000 nM in assay [2] and < 500 nM in assay [3].

Consider `Cc1sc2c(c1C)C(c1ccc(Cl)cc1)=N[C@H](CC(=O)NCCOCCOCCOCCOCCOCCOCCOC1CCN(c3ncc(C(=O)N[C@H]4C(C)(C)[C@H](Oc5ccc(C#N)c(Cl)c5)C4(C)C)cn3)CC1)c1nnc(C)n1-2` [Compound I-9], for which the GI50 in assay [1] is < 500 nM; in assay [2], 1500 to 3000 nM; in assay [3] it was < 500 nM.

Regarding `Cc1sc2c(c1C)C(c1ccc(CCCOC3CCN(c4ncc(C(=O)N[C@H]5C(C)(C)[C@H](Oc6ccc(C#N)c(Cl)c6)C5(C)C)cn4)CC3)cc1)=N[C@@H](C)c1nnc(C)n1-2` [Compound I-228, N-[3-(3-chloro-4-cyano-phenoxy)-2,2,4,4-tetramethyl-cyclobutyl]-2-[4-[3-[4-[(9S)-4,5,9,13-tetramethyl-3-thia-1,8,11,12-tetrazatricyclo [8.3.0.02,6]trideca-2(6),4,7,10,12-pentaen-7-yl]phenyl]propoxy]-1-piperidyl]pyrimidine-5-carboxamide], the GI50 in assay [1] is < 500 nM; in assay [2], 500 to 1500 nM; in assay [3] it was < 500 nM.

In the case of `Cc1sc2c(c1C)C(c1ccc(Cl)cc1)=N[C@@H](CC(=O)NCCCCOCCOC1CCN(c3ncc(C(=O)N[C@H]4C(C)(C)[C@H](Oc5ccc(C#N)c(Cl)c5)C4(C)C)cn3)CC1)c1nnc(C)n1-2` [Compound I-28], the results for the GI50 in assay [1], in assay [2] and in assay [3] were < 500 nM, 500 to 1500 nM and < 500 nM, respectively.

Take `Cc1sc2c(c1C)C(c1cccc(OCCOCCOCCOC3CCN(c4ncc(C(=O)N[C@H]5C(C)(C)[C@H](Oc6ccc(C#N)c(Cl)c6)C5(C)C)cn4)CC3)c1)=N[C@@H](CC(=O)O)c1nnc(C)n1-2` [Compound I-43]: the GI50 in assay [1], in assay [2] and in assay [3] was > 3000 nM throughout.

`CCNC(=O)C[C@@H]1N=C(c2cccc(OCCOC3CCN(c4ncc(C(=O)N[C@H]5C(C)(C)[C@H](Oc6ccc(C#N)c(Cl)c6)C5(C)C)cn4)CC3)c2)c2c(sc(C)c2C)-n2c(C)nnc21` [Compound I-46, N-((1r,3r)-3-(3-chloro-4-cyanophenoxy)-2,2,4,4-tetramethylcyclobutyl)-2-(4-(2-(3-((S)-6-(2-(ethylamino)-2-oxoethyl)-2,3,9-trimethyl-6H-thieno[3,2-f][1,2,4]triazolo[4,3-a][1,4]diazepin-4-yl)phenoxy)ethoxy)piperidin-1-yl)pyrimidine-5-carboxamide]: the GI50 in assay [1] is < 500 nM; in assay [2], 500 to 1500 nM; in assay [3] it was 500 to 1500 nM.

As to `CCNC(=O)C[C@@H]1N=C(c2ccc(N3CC(N(C)C4CN(c5ncc(C(=O)N[C@H]6C(C)(C)[C@H](Oc7ccc(C#N)c(Cl)c7)C6(C)C)cn5)C4)C3)cc2)c2c(sc(C)c2C)-n2c(C)nnc21` [Compound I-121], the GI50 in assay [1] is < 500 nM; in assay [2], 500 to 1500 nM; in assay [3] it was < 500 nM.

As for `Cc1sc2c(c1C)C(c1ccc(Cl)cc1)=N[C@@H](CC(=O)NCCOCCOCCOCCOCCOCCOCCN(C)c1ncc(C(=O)N[C@H]3C(C)(C)[C@H](Oc4ccc(C#N)c(Cl)c4)C3(C)C)cn1)c1nnc(C)n1-2` [Compound I-4], the figures for the GI50 in assay [1], in assay [2] and in assay [3] were < 500 nM, > 3000 nM and < 500 nM, respectively.

As to `CCNC(=O)C[C@@H]1N=C(c2ccc(OCCOC3CCN(c4ncc(C(=O)N[C@H]5C(C)(C)[C@H](Oc6ccc(C#N)c(Cl)c6)C5(C)C)cn4)CC3)cc2)c2c(sc(C)c2C)-n2c(C)nnc21` [Compound I-60, N-((1r,3r)-3-(3-chloro-4-cyanophenoxy)-2,2,4,4-tetramethylcyclobutyl)-2-(4-(2-(4-((S)-6-(2-(ethylamino)-2-oxoethyl)-2,3,9-trimethyl-6H-thieno[3,2-f][1,2,4]triazolo[4,3-a][1,4]diazepin-4-yl)phenoxy)ethoxy)piperidin-1-yl)pyrimidine-5-carboxamide], the GI50 in assay [1] was < 500 nM; in assay [2], < 500 nM; in assay [3], 500 to 1500 nM.

Consider `CCNC(=O)C[C@@H]1N=C(c2ccc(OCCOC3CCN(c4ncc(C(=O)N[C@H]5C(C)(C)[C@H](Oc6ccc(C#N)c(Cl)c6)C5(C)C)cn4)CC3)c(F)c2)c2c(sc(C)c2C)-n2c(C)nnc21` [Compound I-76], for which the GI50 in assay [1] was < 500 nM; in assay [2], 500 to 1500 nM; in assay [3] it was 500 to 1500 nM.

On to `Cc1sc2c(c1C)C(c1ccc(N3CC(C4CCN(c5ncc(C(=O)N[C@H]6C(C)(C)[C@H](Oc7ccc(C#N)c(Cl)c7)C6(C)C)cn5)CC4)C3)cc1)=N[C@@H](C)c1nnc(C)n1-2` [Compound I-271], for which the GI50 was < 500 nM in assay [1], > 3000 nM in assay [2] and > 3000 nM in assay [3].

For `Cc1sc2c(c1C)C(c1ccc(Cl)cc1)=N[C@@H](CC(=O)NCCCCCCCOC1CCN(c3ncc(C(=O)N[C@H]4C(C)(C)[C@H](Oc5ccc(C#N)c(Cl)c5)C4(C)C)cn3)CC1)c1nnc(C)n1-2` [Compound I-24], the GI50 in assay [1] was < 500 nM; in assay [2], > 3000 nM; in assay [3], < 500 nM.

Consider `Cc1sc2c(c1C)C(c1ccc(OC3CC4(C3)CC3(CCN(c5ncc(C(=O)N[C@H]6C(C)(C)[C@H](Oc7ccc(C#N)c(Cl)c7)C6(C)C)cn5)CC3)C4)cc1)=N[C@@H](Cc1ncco1)c1nnc(C)n1-2` [Compound I-283], for which the values for the GI50 in assay [1], in assay [2] and in assay [3] were < 500 nM, > 3000 nM and < 500 nM, respectively.

Take `Cc1sc2c(c1C)C(c1ccc(CCC3CC4(CCCN(c5ncc(C(=O)N[C@H]6C(C)(C)[C@H](Oc7ccc(C#N)c(Cl)c7)C6(C)C)cn5)C4)C3)cc1)=N[C@@H](Cc1ncco1)c1nnc(C)n1-2` [Compound I-241]: the GI50 in assay [1] is < 500 nM; in assay [2], < 500 nM; in assay [3], > 3000 nM.

What is called GI50 is the concentration that inhibits growth by half.
